In brackets after ≈: the same amount, converted by molar mass.
What was measured:
[1] = Solubility study at 37° C. (buffer, water, bio-relevant media, MeOH/DCM); type: physicochemical
Protocol: In addition, residual solids were checked by chiral HPLC to confirm whether racemization occurs.
Accurate 4 mg of I-1 Form A, 5.13 mg of I-3 Form A, 4.63 mg of I-4 Form A was weighed into a 8 mL glass vial, respectively. 2 mL of solubility medium was added. The salt amount used is equivalent to 4 mg anhydrous free form. Obtained suspensions/solutions were stirred at 37° C. at 400 rpm for 2 hours and 24 hours and then centrifuged at 37° C. at 14,000 rpm for 5 min. Supernatants were analyzed by UPLC and PH meter for solubility and pH value, respectively. Residual solids (wet cakes) were characterized by XRPD to determine physical form and then analyzed by HPLC for chiral purity.

[2] = Suspension stability at 25° C.; type: physicochemical; details: for Solubility (μg/mL): LOQ: 0.25 μg/mL; for Initial chiral purity: before suspension; for physical form of residual solids (XRPD): 0.5% MC (400 cP)+2% Vitamin E TPGS
Protocol: Suspension stability: Suspension stability of I-1 Form A and the 2 salt candidates was investigated in pure water, 0.5% (w/w) Tween 80 aqueous solution and 0.5% (w/w) MC (400 cP)+2% (w/w) Vitamin E TPGS aqueous solution at 25° C. for 2 h and 24 h. Target concentration was 2 mg/mL.
To confirm whether racemization occurs for the 2 salts in 0.5% (w/w) MC (400 cP)+2% (w/w) Vitamin E TPGS aqueous solution, the suspension stability in this vehicle was repeated at target concentration of 10 mg/mL. […] The hygroscopicity of these salts were further investigated.
Accurate 10 mg of I-1 Form A, 12.83 mg of I-3 Form A, 11.58 mg of I-4 Form A was weighed into a 8 mL glass vial, respectively. 5 mL of suspension vehicle was added, respectively. The salt amount used is equivalent to 10 mg anhydrous free form. These suspensions were stirred at 25° C. with 400 rpm. These suspensions were taken out at 2 hours and 24 hours, then centrifuged at 14,000 rpm for 5 min. The supernatants were analyzed by HPLC and pH meter. Solids obtained (wet cakes) were characterized by XRPD and HPLC to determine the chiral purity.
Accurate […] of I-3 Form A, 46.3 mg of I-4 Form A was weighed into a 8 mL glass vial, respectively. 4 mL of solubility medium was added, respectively. The salt amount used is equivalent to 40 mg anhydrous free form. 4 mL of the aqueous vehicle (0.5% (w/w) MC (400 cP) and 2% (w/w) Vitamin E TPGS in water) was added, respectively. These suspensions were stirred at 25° C. with 400 rpm. These suspensions were taken out at 2 hours and 24 hours, then centrifuged at 14,000 rpm for 5 min. The supernatants were analyzed by HPLC for the solubility and chiral purity and analyzed by pH meter. Solids obtained (wet cakes) were characterized by XRPD and HPLC for chiral purity.

[3] = FaSSIF-V1, pH 6.5, 2 hours, listed as I-1 Form A
[4] = FaSSIF-V1, pH 6.5, 24 hours, listed as I-1 Form A
[5] = FeSSIF-V1, pH 5.0, 24 hours, listed as I-1 Form A
[6] = SGF, pH 2.0, 24 hours, listed as I-1 Form A
[7] = Water, 24 hours, LOQ: 0.5 μg/mL
[8] = Water, 24 hours, listed as I-1 Form A
[9] = pH 2, HCl, 2 hours, LOQ: 0.5 μg/mL
[10] = pH 2, HCl, 24 hours, LOQ: 0.5 μg/mL
[11] = pH 2, HCl, 24 hours, listed as I-1 Form A
[12] = 25° C., 2 mg/mL, 0.5%(w/w) MC(400 cP) and 2%(w/w) Vitamin E TPGS in water, 2 h, listed as I-1 Form A
[13] = 25° C., 2 mg/mL, 0.5%(w/w) MC(400 cP) and 2%(w/w) Vitamin E TPGS in water, 24 h, listed as I-1 Form A
[14] = 25° C., 2 mg/mL, 0.5%(w/w) Tween 80 in water, 2 h, listed as I-1 Form A
[15] = 25° C., 2 mg/mL, 0.5%(w/w) Tween 80 in water, 24 h, listed as I-1 Form A
[16] = 25° C., 2 mg/mL, Pure water, 2 h, listed as I-1 Form A
[17] = 25° C., 2 mg/mL, Pure water, 24 h, listed as I-1 Form A
[18] = FaSSIF-V1, pH 6.5, 2 hours, listed as I-3 Form A
[19] = FaSSIF-V1, pH 6.5, 24 hours, listed as I-3 Form A
[20] = FeSSIF-V1, pH 5.0, 2 hours, listed as I-3 Form A
[21] = FeSSIF-V1, pH 5.0, 24 hours, listed as I-3 Form A
[22] = SGF, pH 2.0, 24 hours, listed as I-3 Form A
[23] = Water, 24 hours, listed as I-3 Form A
[24] = pH 2, HCl, 24 hours, listed as I-3 Form A
[25] = 25° C., 2 mg/mL, 0.5%(w/w) MC(400 cP) and 2%(w/w) Vitamin E TPGS in water, 2 h, listed as I-3 Form A
[26] = 25° C., 2 mg/mL, 0.5%(w/w) MC(400 cP) and 2%(w/w) Vitamin E TPGS in water, 24 h, listed as I-3 Form A
[27] = 25° C., 2 mg/mL, 0.5%(w/w) Tween 80 in water, 2 h, listed as I-3 Form A
[28] = 25° C., 2 mg/mL, 0.5%(w/w) Tween 80 in water, 24 h, listed as I-3 Form A
[29] = 25° C., 2 mg/mL, Pure water, 2 h, listed as I-3 Form A
[30] = 25° C., 2 mg/mL, Pure water, 24 h, listed as I-3 Form A
[31] = 25° C., 10 mg/mL, 0.5(w/w) MC(400 cP) and 2%(w/w) Vitamin E TPGS in water, 2 h, listed as I-3 Form A
[32] = 25° C., 10 mg/mL, 0.5(w/w) MC(400 cP) and 2%(w/w) Vitamin E TPGS in water, 24 h, listed as I-3 Form A

## N#Cc1c(-c2cc(NC(=O)c3cc(F)cc(C(F)(F)F)c3)c3c(c2)C(=O)N[C@H]3c2cc(F)ccc2Cl)ccc2ncnn12 [Compound I-1, (R)-N-(3-(2-chloro-5-fluorophenyl)-6-(5-cyano-[1,2,4]triazolo[1,5-a]pyridin-6-yl)-1-oxoisoindolin-4-yl)-3-fluoro-5-(trifluoromethyl)benzamide]
[1]; [3]
  Chiral purity: purity: 97.7%)
  Solubility: 4.5 μg/mL(chiral
[1]; FaSSIF-V1, pH 6.5, 24 hours
  Chiral purity: (chiral purity: 97.7%)
[1]; [4]
  Chiral purity (solids): 98.9%)
  Solubility: 11.9 µg/mL (≈ 19.5 µM)
  pH of supernatant: 6.45
[1]; FeSSIF-V1, pH 5.0, 2 hours, listed as I-1 Form A
  Solubility: 20.5 µg/mL (≈ 33.7 µM)
[1]; [5]
  Chiral purity (solids): 85.7%)
  Solubility: 40.6 µg/mL (≈ 66.7 µM)
  pH of supernatant: 4.87
[1]; MeOH/DCM (1:2, v/v), 37 °C, organic solvent or mixture, thermodynamic from solid, MeOH/DCM (1:2, v/v), 2 hours
  solubility at 2 h: > 145 mg/mL
[1]; MeOH/DCM (1:2, v/v), 37 °C, organic solvent or mixture, thermodynamic from solid, MeOH/DCM (1:2, v/v), 24 hours
  solubility at 24 h: > 145 mg/mL
[1]; MeOH/DCM (1:2, v/v), 37 °C, organic solvent or mixture, thermodynamic from solid, read-out: solubility in MeOH/DCM (1:2, v/v)
  Solubility: > 145000 µg/mL
[1]; SGF, pH 2.0, 2 hours, listed as I-1 Form A
  Solubility: 11.2 µg/mL (≈ 18.4 µM)
[1]; [6]
  Chiral purity (solids): 98.9%)
  Solubility: 6.4 µg/mL (≈ 10.5 µM)
  pH of supernatant: 2.04
[1]; Water, 2 hours, LOQ: 0.5 μg/mL
  Solubility: <LOQ
[1]; [7]
  Solubility: LOQ
[1]; [8]
  Chiral purity (solids): 98.9%)
  pH of supernatant: 7.50
[1]; [9]
  Solubility: <LOQ
[1]; [10]
  Solubility: LOQ
[1]; [11]
  Chiral purity (solids): 98.9%)
  pH of supernatant: 2.03
[1]; pH 2.0 HCl buffer solution, 37 °C, pH 2, aqueous buffer, thermodynamic from solid, solubility in pH 2 HCl buffer solution, 2 h and 24 h, LOQ=0.5 μg/mL
  Solubility: < 0.5 µg/mL
[1]; water, 37 °C, water, thermodynamic from solid, 2 h and 24 h, LOQ=0.5 μg/mL, read-out: solubility in pure water
  Solubility: < 0.5 µg/mL
[2]; 3 vehicles, 25° C., 2 mg/mL
  physical stability in suspension (XRPD): physically stable
  racemization in suspension: no racemization
[2]; 25° C., 2 mg/mL, 0.5%(w/w) MC(400 cP) and 2%(w/w) Vitamin E TPGS in water, 2 h
  Chiral purity (solids): 98.7%
[2]; [12]
  Chiral purity: 64.8%
  Purity: 99.5%
  Solubility: 47.9 µg/mL (≈ 78.7 µM)
  pH: 5.02
[2]; 25° C., 2 mg/mL, 0.5%(w/w) MC(400 cP) and 2%(w/w) Vitamin E TPGS in water, 24 h
  Chiral purity (solids): 96.6%
[2]; [13]
  Chiral purity: 97.7%
  Purity: 99.1%
  Solubility: 34.5 µg/mL (≈ 56.7 µM)
  pH: 4.30
[2]; [14]
  Chiral purity: 83.2%
  Chiral purity (solids): 98.8%
  Purity: 99.1%
  Solubility: 25.5 µg/mL (≈ 41.9 µM)
  pH: 6.52
[2]; [15]
  Chiral purity: 93.0%
  Chiral purity (solids): 97.6%
  Purity: 99.2%
  Solubility: 17.6 µg/mL (≈ 28.9 µM)
  pH: 7.40
[2]; 25° C., 2 mg/mL, Pure water, 2 h
  Solubility (μg/mL): <LOQ
[2]; [16]
  Chiral purity (solids): 98.8%
  Purity: 99.1%
  pH: 6.79
[2]; 25° C., 2 mg/mL, Pure water, 24 h
  Solubility (μg/mL): <LOQ
[2]; [17]
  Chiral purity (solids): 96.7%
  Purity: 99.2%
  pH: 8.27
[2]; listed as I-1 Form A
  Initial chiral purity: Initial chiral purity: 98.9%
[2]; water, 0.5% Tween 80, 0.5% MC (400 cP)+2% Vitamin E TPGS, 25° C., 2 h and 24 h, 2 mg/mL
  chemical stability in suspension: chemically stable

## N#Cc1c(-c2cc(NC(=O)c3cc(F)cc(C(F)(F)F)c3)c3c(c2)C(=O)N[C@H]3c2cc(F)ccc2Cl)ccc2ncnn12 [Compound I-3]
[1]; [18]
  Chiral purity: purity: 96.1%)
  Solubility: 52.2 μg/mL (chiral
[1]; [19]
  Chiral purity (solids): 98.4%)
  Solubility: 0.7 µg/mL (≈ 1.15 µM)
  pH of supernatant: 6.17
[1]; [20]
  Chiral purity: purity: 97.1%)
  Solubility: 176.1 μg/mL(chiral
[1]; [21]
  Chiral purity (solids): 66.4%)
  Solubility: 19.0 µg/mL (≈ 31.2 µM)
  pH of supernatant: 4.86
[1]; MeOH/DCM (1:2, v/v), 2 hours, listed as I-3 Form A
  Solubility: >75000 µg/mL
[1]; MeOH/DCM (1:2, v/v), 24 hours, listed as I-3 Form A
  Solubility: >75000 µg/mL
[1]; SGF, pH 2.0, 2 hours, listed as I-3 Form A
  Solubility: 4.2 µg/mL (≈ 6.9 µM)
[1]; [22]
  Chiral purity (solids): 98.3%)
  Solubility: 1.3 µg/mL (≈ 2.13 µM)
  pH of supernatant: 1.92
[1]; Water, 2 hours, LOQ: 0.5 μg/mL
  Solubility: <LOQ
[1]; [7]
  Solubility: LOQ
[1]; [23]
  Chiral purity (solids): 98.3%)
  pH of supernatant: 2.54
[1]; listed as I-3 Form A
  solubility in MeOH/DCM (1:2, v/v): > 75 mg/mL
[1]; [9]
  Solubility: <LOQ
[1]; [10]
  Solubility: LOQ
[1]; [24]
  Chiral purity (solids): 98.3%)
  pH of supernatant: 1.86
[2]; 10 mg/mL, 2 h sample, listed as I-3 Form A
  physical form of residual solids (XRPD): converted to a hydrate (I-3 Form B)
[2]; 10 mg/mL, 2 h sample, listed as tosylate salt
  physical form of residual solids (XRPD): a form change
[2]; 10 mg/mL, 24 h sample
  physical form of residual solids (XRPD): remained unchanged
[2]; [25]
  Chiral purity: 86.4%
  Purity: 99.3%
  Solubility: 1220.9 µg/mL (≈ 2010 µM)
  pH: 2.76
[2]; [26]
  Chiral purity: 98.3%
  Purity: 99.3%
  Solubility: 1990.7 µg/mL (≈ 3270 µM)
  pH: 2.62
[2]; [27]
  Chiral purity: 95.8%
  Chiral purity (solids): 98.0%
  Purity: 99.4%
  Solubility: 244.6 µg/mL (≈ 402 µM)
  pH: 3.11
[2]; [28]
  Chiral purity: 98.5%
  Chiral purity (solids): 94.2%
  Purity: 99.4%
  Solubility: 17.9 µg/mL (≈ 29.4 µM)
  pH: 2.63
[2]; [29]
  Chiral purity (solids): 98.3%
  Purity: 99.6%
  pH: 5.59
[2]; [30]
  Chiral purity (solids): 98.3%
  Purity: 99.5%
  pH: 2.85
[2]; [31]
  Chiral purity, liquid: 99.4%;
  Chiral purity, solid: 97.9%
  Solubility: 3433.2 µg/mL (≈ 5640 µM)
  pH: 2.30
[2]; [32]
  Chiral purity, liquid: 99.4%;
  Chiral purity, solid: 98.3%
  Purity: 99.7%
  Solubility: 3083.9 µg/mL (≈ 5060 µM)
  pH: 2.17
[2]; listed as I-3 Form A
  Initial chiral purity: Initial chiral purity: 98.6%

From patent US20260125374A1, “PI3K-ALPHA INHIBITORS AND METHODS OF MAKING AND USING THE SAME” (Relay Therapeutics, Inc., priority 2021, published 2026)
